# According to patent US20240208992A1, “MACROCYCLES AS CFTR MODULATORS” (Idorsia Pharmaceuticals Ltd, priority 2021, published 2024):
# Molecular target: human F508del-CFTR (Homo sapiens, UniProt P13569, DEL508-508)
# Assay: F508del-CFTR cell surface expression (corrector activity), DiscoveRx ß-galactosidase complementation chemiluminescence assay in recombinant U2OS cell line;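 also: U2OS cells co-expressing ProLink-tagged F508del-CFTR and a membrane-anchored enzyme acceptor, where more surface CFTR restores β-galactosidase activity measured by chemiluminescence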
# Conditions: for EC50: EC50, F508del-CFTR cell surface expression, U2OS cells, 16h compound incubation, geomean values; for Emax: in relation to Emax of corrector lumacaftor (=100%), arithmetic mean values
# human F508del-CFTR, sequence (P13569 with tags, fused parts or gaps DEL508-508): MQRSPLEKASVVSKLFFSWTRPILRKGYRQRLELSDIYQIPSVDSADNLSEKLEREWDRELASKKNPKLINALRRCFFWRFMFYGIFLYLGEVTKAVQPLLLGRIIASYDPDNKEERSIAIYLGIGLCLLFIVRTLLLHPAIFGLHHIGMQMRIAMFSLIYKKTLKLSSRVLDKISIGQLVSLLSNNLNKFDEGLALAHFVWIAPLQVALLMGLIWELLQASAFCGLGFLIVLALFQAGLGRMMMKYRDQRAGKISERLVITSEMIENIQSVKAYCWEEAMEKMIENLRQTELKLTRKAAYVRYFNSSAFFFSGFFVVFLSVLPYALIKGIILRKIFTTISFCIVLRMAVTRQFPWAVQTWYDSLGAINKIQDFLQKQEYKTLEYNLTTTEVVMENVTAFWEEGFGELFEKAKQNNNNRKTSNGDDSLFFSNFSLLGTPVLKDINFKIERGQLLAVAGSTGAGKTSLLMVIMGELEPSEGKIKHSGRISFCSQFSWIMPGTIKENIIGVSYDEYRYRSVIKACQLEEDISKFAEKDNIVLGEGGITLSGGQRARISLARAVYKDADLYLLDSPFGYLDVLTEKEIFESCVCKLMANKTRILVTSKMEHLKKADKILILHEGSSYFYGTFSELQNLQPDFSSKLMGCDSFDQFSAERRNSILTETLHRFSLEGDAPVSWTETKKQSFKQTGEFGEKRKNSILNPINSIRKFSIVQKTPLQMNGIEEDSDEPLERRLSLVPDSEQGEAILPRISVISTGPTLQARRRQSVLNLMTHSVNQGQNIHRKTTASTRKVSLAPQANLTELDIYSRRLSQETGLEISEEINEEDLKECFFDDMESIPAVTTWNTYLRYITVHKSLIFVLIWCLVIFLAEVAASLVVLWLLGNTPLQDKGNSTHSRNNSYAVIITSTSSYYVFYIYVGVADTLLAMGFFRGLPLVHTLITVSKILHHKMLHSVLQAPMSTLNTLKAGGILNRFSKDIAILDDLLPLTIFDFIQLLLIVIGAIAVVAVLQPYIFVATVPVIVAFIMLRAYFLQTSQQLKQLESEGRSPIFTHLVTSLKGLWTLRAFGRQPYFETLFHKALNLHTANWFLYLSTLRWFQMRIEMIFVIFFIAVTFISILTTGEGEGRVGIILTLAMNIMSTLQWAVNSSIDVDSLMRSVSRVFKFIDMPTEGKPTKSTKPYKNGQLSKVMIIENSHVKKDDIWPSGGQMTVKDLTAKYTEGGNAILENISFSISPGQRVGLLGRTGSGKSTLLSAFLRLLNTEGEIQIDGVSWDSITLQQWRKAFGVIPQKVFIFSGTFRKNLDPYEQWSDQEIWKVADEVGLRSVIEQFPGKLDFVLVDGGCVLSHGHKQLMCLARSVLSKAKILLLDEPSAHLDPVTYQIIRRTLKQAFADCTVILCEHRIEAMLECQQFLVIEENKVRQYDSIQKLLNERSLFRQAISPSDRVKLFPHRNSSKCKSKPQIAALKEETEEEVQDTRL
SMILES,EC50 [nM],Emax [%],Emax (U2OS) [%]
"COc1cc2c(cn1)OC[C@@H](Cc1ccccc1)NC(=O)[C@H]1CCCCN1C(=O)[C@H](CC(C)C)N(C)C(=O)C[C@@H](C(=O)NCCc1cc(C3CC3)on1)NC2=O [Example 518, (7S,11S,17aR,20R)-20-benzyl-N-(2-(5-cyclopropylisoxazol-3-yl)ethyl)-11-isobutyl-3-methoxy-10-methyl-5,9,12,18-tetraoxo-5,6,7,8,9,10,11,12,15,16,17,17a,18,19,20,21-hexadecahydro-14H-dipyrido[2,1-f:2′,3′-p][1]oxa[4,7,10,14]tetraazacycloheptadecine-7-carboxamide]",655,189,–
"CC(C)C[C@H]1C(=O)N(C)C2(CC2)C(=O)N[C@H](Cc2ccccc2)COc2cnc3ccc(F)cc3c2C(=O)N[C@H](C(=O)NCCc2cc(C3CC3)no2)CC(=O)N1C [Example 519, (3′S,7′S,13′R)-13′-benzyl-N-(2-(3-cyclopropylisoxazol-5-yl)ethyl)-20′-fluoro-7′-isobutyl-6′,9′-dimethyl-1′,5′,8′,11′-tetraoxo-2′,3′,4′,5′,6′,7′,8′,9′,11′,12′,13′,14′-dodecahydro-1′H-spiro[cyclopropane-1,10′-[1]oxa[4,7,10,14]tetraazacycloheptadecino[17,16-c]quinoline]-3′-carboxamide]",184,–,332
"CC(C)C[C@H]1C(=O)N2CCCC[C@H]2C(=O)N[C@H](Cc2ccccc2)COc2cnc3ccc(F)cc3c2C(=O)N[C@H](C(=O)NCCc2noc(C3CC3)n2)CC(=O)N1C [Example 520, (9S,13S,19aS,22R)-22-benzyl-N-(2-(5-cyclopropyl-1,2,4-oxadiazol-3-yl)ethyl)-5-fluoro-13-isobutyl-12-methyl-7,11,14,20-tetraoxo-7,8,9,10,11,12,13,14,17,18,19,19a,20,21,22,23-hexadecahydro-16H-pyrido[2′,11:6,7][1]oxa[4,7,10,14]tetraazacycloheptadecino[17,16-c]quinoline-9-carboxamide]",345,–,155
"CC(C)C[C@H]1C(=O)N2CCCC[C@H]2C(=O)N[C@H](Cc2ccccc2)COc2cnc3ccc(F)cc3c2C(=O)N[C@H](C(=O)NCCc2nc(C3CC3)no2)CC(=O)N1C [Example 521, (9S,13S,19aS,22R)-22-benzyl-N-(2-(3-cyclopropyl-1,2,4-oxadiazol-5-yl)ethyl)-5-fluoro-13-isobutyl-12-methyl-7,11,14,20-tetraoxo-7,8,9,10,11,12,13,14,17,18,19,19a,20,21,22,23-hexadecahydro-16H-pyrido[2′,1′:6,7][1]oxa[4,7,10,14]tetraazacycloheptadecino[17,16-c]quinoline-9-carboxamide]",433,–,191
"COc1cccc(CCNC(=O)[C@@H]2CC(=O)N(C)[C@@H](CC(C)C)C(=O)N3CCCC[C@@H]3C(=O)N[C@H](Cc3ccccc3)COc3cnc4ccc(Cl)cc4c3C(=O)N2)c1 [Example 528, (9S,13S,19aR,22R)-22-benzyl-5-chloro-13-isobutyl-N-(3-methoxyphenethyl)-12-methyl-7,11,14,20-tetraoxo-7,8,9,10,11,12,13,14,17,18,19,19a,20,21,22,23-hexadecahydro-16H-pyrido[2′,11:6,7][1]oxa[4,7,10,14]tetraazacycloheptadecino[17,16-c]quinoline-9-carboxamide]",321,–,337
COc1cccc(CCNC(=O)[C@@H]2CC(=O)N(C)[C@@H](CC(C)C)C(=O)N(C)CC(=O)N[C@H](Cc3ccccc3)COc3ncc4ccccc4c3C(=O)N2)c1 [Example 530],334,–,353
"COc1cccc(CCNC(=O)[C@@H]2CC(=O)N(C)[C@@H](CC(C)C)C(=O)N(C)CC(=O)N[C@H](Cc3ccccc3)COc3ccc4cc(C)oc4c3C(=O)N2)c1 [Example 531, (8R,14S,18S)-8-benzyl-14-isobutyl-N-(3-methoxyphenethyl)-2,12,15-trimethyl-10,13,16,20-tetraoxo-7,8,9,10,11,12,13,14,15,16,17,18,19,20-tetradecahydrobenzofuro[7,6-p][1]oxa[4,7,10,14]tetraazacycloheptadecine-18-carboxamide]",265,–,336

# The next lines start with the values.
EC50 [nM],Emax [%],Emax (U2OS) [%],SMILES
204,–,237,"CC(C)C[C@H]1C(=O)N2CCCC[C@H]2C(=O)N[C@H](Cc2ccccc2)COc2cnc3c(F)cccc3c2C(=O)N[C@H](C(=O)NCCc2ccc(-n3nccn3)cc2)CC(=O)N1C [Example 522, (9S,13S,19aR,22R)-N-(4-(2H-1,2,3-triazol-2-yl)phenethyl)-22-benzyl-3-fluoro-13-isobutyl-12-methyl-7,11,14,20-tetraoxo-7,8,9,10,11,12,13,14,17,18,19,19a,20,21,22,23-hexadecahydro-16H-pyrido[2′,1′:6,7][1]oxa[4,7,10,14]tetraazacycloheptadecino[17,16-c]quinoline-9-carboxamide]"
483,–,352,"COc1nccc2c1C(=O)N[C@H](C(=O)NCCc1cc(C3CC3)no1)CC(=O)N(C)[C@@H](CC(C)C)C(=O)N1CCCC[C@@H]1C(=O)N[C@H](Cc1ccccc1)CO2 [Example 523, (7S,11S,17aR,20R)-20-benzyl-N-(2-(3-cyclopropylisoxazol-5-yl)ethyl)-11-isobutyl-4-methoxy-10-methyl-5,9,12,18-tetraoxo-5,6,7,8,9,10,11,12,15,16,17,17a,18,19,20,21-hexadecahydro-14H-dipyrido[2,1-f:3′,4′-p][1]oxa[4,7,10,14]tetraazacycloheptadecine-7-carboxamide]"
60,–,339,"CC(C)C[C@H]1C(=O)N2CCN(c3ccccc3)C[C@H]2C(=O)N[C@H](Cc2ccccc2)COc2cnc3ccc(F)cc3c2C(=O)N[C@H](C(=O)NCCc2cc(C3CC3)no2)CC(=O)N1C [Example 524, (9S,13S,19aR,22R)-22-benzyl-N-(2-(3-cyclopropylisoxazol-5-yl)ethyl)-5-fluoro-13-isobutyl-12-methyl-7,11,14,20-tetraoxo-18-phenyl-7,8,9,10,11,12,13,14,17,18,19,19a,20,21,22,23-hexadecahydro-16H-pyrazino[2′,11:6,7][1]oxa[4,7,10,14]tetraazacycloheptadecino[17,16-c]quinoline-9-carboxamide]"
56,–,288,"CC(C)C[C@H]1C(=O)N2CCN(c3ccccc3)C[C@H]2C(=O)N[C@H](Cc2ccccc2)COc2cnc3ccc(F)cc3c2C(=O)N[C@H](C(=O)NCCc2nc(C3CC3)no2)CC(=O)N1C [Example 525, (9S,13S,19aR,22R)-22-benzyl-N-(2-(3-cyclopropyl-1,2,4-oxadiazol-5-yl)ethyl)-5-fluoro-13-isobutyl-12-methyl-7,11,14,20-tetraoxo-18-phenyl-7,8,9,10,11,12,13,14,17,18,19,19a,20,21,22,23-hexadecahydro-16H-pyrazino[2′,11:6,7][1]oxa[4,7,10,14]tetraazacycloheptadecino[17,16-c]quinoline-9-carboxamide]"
394,167,–,"COc1cc2c(cn1)OC[C@@H](Cc1ccccc1)NC(=O)[C@H]1CCCCN1C(=O)[C@H](CC(C)C)N(C)C(=O)C[C@@H](C(=O)NCCc1cc(C3CC3)on1)NC2=O [Example 526, (7S,11S,17aR,20R)-20-benzyl-N-(2-(5-cyclopropylisoxazol-3-yl)ethyl)-11-isobutyl-3-methoxy-10-methyl-5,9,12,18-tetraoxo-5,6,7,8,9,10,11,12,15,16,17,17a,18,19,20,21-hexadecahydro-14H-dipyrido[2,1-f:4′,3′-p][1]oxa[4,7,10,14]tetraazacycloheptadecine-7-carboxamide]"
151,–,318,"Cc1cc(CCNC(=O)[C@@H]2CC(=O)N(C)[C@@H](CC(C)C)C(=O)N3CCCC[C@H]3C(=O)N[C@H](Cc3ccccc3)COc3cnc4ccc(Cl)cc4c3C(=O)N2)on1 [Example 527, (9S,13S,19aR,22R)-22-benzyl-5-chloro-13-isobutyl-12-methyl-N-(2-(3-methylisoxazol-5-yl)ethyl)-7,11,14,20-tetraoxo-7,8,9,10,11,12,13,14,17,18,19,19a,20,21,22,23-hexadecahydro-16H-pyrido[2′,11:6,7][1]oxa[4,7,10,14]tetraazacycloheptadecino[17,16-c]quinoline-9-carboxamide]"
947,–,206,"COc1cc2c(cn1)OC[C@@H](Cc1ccccc1)NC(=O)[C@H]1CCCCN1C(=O)[C@H](CC(C)C)N(C)C(=O)C[C@@H](C(=O)NCCc1nc(C3CC3)no1)NC2=O [Example 529, (7S,11S,17aR,20R)-20-benzyl-N-(2-(3-cyclopropyl-1,2,4-oxadiazol-5-yl)ethyl)-11-isobutyl-3-methoxy-10-methyl-5,9,12,18-tetraoxo-5,6,7,8,9,10,11,12,15,16,17,17a,18,19,20,21-hexadecahydro-14H-dipyrido[2,1-f:2′,3′-p][1]oxa[4,7,10,14]tetraazacycloheptadecine-7-carboxamide]"
397,–,375,"Cc1cc2ccc3c(c2o1)C(=O)N[C@H](C(=O)NCCc1cc(C2CC2)no1)CC(=O)N(C)[C@@H](CC(C)C)C(=O)N(C)CC(=O)N[C@H](Cc1ccccc1)CO3 [Example 532, (8R,14S,18S)-8-benzyl-N-(2-(3-cyclopropylisoxazol-5-yl)ethyl)-14-isobutyl-2,12,15-trimethyl-10,13,16,20-tetraoxo-7,8,9,10,11,12,13,14,15,16,17,18,19,20-tetradecahydrobenzofuro[7,6-p][1]oxa[4,7,10,14]tetraazacycloheptadecine-18-carboxamide]"
221,–,352,"COc1cc(CCNC(=O)[C@@H]2CC(=O)N(C)[C@@H](CC(C)C)C(=O)N3CCCC[C@@H]3C(=O)N[C@H](Cc3ccccc3)COc3cc(C)nc(OC)c3C(=O)N2)on1 [Example 533, (7S,11S,17aR,20R)-20-benzyl-11-isobutyl-4-methoxy-N-(2-(3-methoxyisoxazol-5-yl)ethyl)-2,10-dimethyl-5,9,12,18-tetraoxo-5,6,7,8,9,10,11,12,15,16,17,17a,18,19,20,21-hexadecahydro-14H-dipyrido[2,1-f:3′,4′-p][1]oxa[4,7,10,14]tetraazacycloheptadecine-7-carboxamide]"
